Laboratory results taken from patent US20230125667A1, “NOVEL TDZD ANALOGS AS AGENTS THAT DELAY, PREVENT, OR REVERSE AGE-ASSOCIATED DISEASES AND AS ANTI-CANCER AND ANTILEUKEMIC AGENTS” (United States Government as represented by the Department …, priority 2020, published 2023).

What was measured:
[1] = system: SH-SY5Y-APPSw cells; test: Thioflavin-T staining of amyloid-like aggregates in SH-SY5Y-APPSw cells; assay type: cell-based, human; settings: neuronal cells (FIG. 9)
Procedure: Several TDZD-conjugated drugs (putative GSK-3 inhibitors) were evaluated for their ability to reduce accumulation of protein aggregates, and for protection against aggregation-associated end-points in the following model systems: (i.) SH-SY5Y-APPSw, a neuroblastoma cell line expressing the Swedish mutation of Amyloid Precursor Protein (APPSw), and thus predisposed to form β-amyloid deposits; (ii.) C. elegans strain CL4176, a model of Alzheimer-like amyloidopathy that can be induced to express human Aβ1-42 in muscle, or may express it at a lower level without induction; (iii.) C. elegans strain AM141, a model of Huntington-like polyglutamine aggregation that constitutively expresses Q40::YFP (a tract of 40 glutamines fused in-frame to yellow fluorescent protein) in muscle cells and forms aggregates progressively with adult aging. The TDZD analog PNR-962 (a putative GSK-3 inhibitor) and other related compounds (not shown) were protective in all aggregation assays.
First, the effects of TDZD analogues were tested on the human neuroblastoma cell line SH-SY5Y-APPSw, a model of Alzheimer-like amyloid aggregation expressing the “Sw” mutant form of Amyloid Precursor Protein, APP. These drugs all produced significant reductions in amyloid-like aggregates, by 30-50% as quantified by thioflavin-T staining intensity (data for PNR-962 are shown in FIG. 4). Modified TDZD-8 analogues PNR-962 and BSK-179 are more anti-aggregative than TDZD-8, lowering total amyloid-staining intensity by a further 14% (data not shown).
Following previously described experimental procedures (Liu, et al. (2005). S100B-induced microglial and neuronal IL-1 expression is mediated by cell type-specific transcription factors. Journal of Neurochemistry. 92(3): 546-553), SH-SY5Y-APPSw neuronal cells expressing an aggregation-prone double mutant of amyloid precursor protein (APPSw) were cultured in DMEM plus 10% (v/v) fetal bovine serum (FBS) at 37° C. Cells were suspended in trypsin/EDTA and rinsed in PBS prior to re-plating or harvesting. […] Human neuroblastoma cells were treated with PNR962, either simultaneous with sAPPα or beginning 1 h prior to sAPPα addition (pre-treatment) in order to ascertain the protective benefits of PNR962 on protein aggregation in human neuroblastoma cell lines. A similar experimental procedure was followed to examine the effect of treatment with these analogs on non-neuronal human cells, exposing human embryonic kidney cells (HEK) that express tau-like aggregates (found in AD-associated diseases) to 0.001, 0.01, and 1-μM doses of TDZD-8 and its analogues.
To observe the protective effects of the novel TDZD analogs on protein aggregation in SY5Y-APPSw cells, using DMEM medium containing 10% fetal calf serum in […], cells were cultured at 37′C for 26 hrs allowing cells to approximately double in number. After 48 h of cell incubation in the presence of specified concentrations of drug or vehicle, cells were fixed 15 min in formaldehyde (4% v/v), washed, and stained 20 min at ˜22° C. in a dark container with 0.1% w/v Thioflavin T mixed with DAPI (1 μg/ml; Life Technologies, Grand Island, N.Y., USA). […] The intensity of aggregate/thioflavin-T fluorescence per field was quantified via an Image J plug-in developed in-house, and normalized to the number of DAPI^+ nuclei counted per field, to obtain an average intensity of aggregates per cell for each treatment.

[2] = system: MV4-11 cell line (myelomonocytic leukemia); settings: MV4-11 cells, 24 h, Ibuprofen-TDZD analogs (Table 3)

For `CC(C)Cc1ccc(C(C)C(=O)NCc2ccc(Cn3c(=O)sn(CCCl)c3=O)cc2)cc1` (stereo not shown) [BSK-137], the “reduction of aggregate intensity (Thioflavin-T staining)” value [1] was 34%, the “LD50, 7AAD (μM) 24 h” value ([2]; 7AAD) was 3.39 µM and the “LD50, Alamar blue (μM) 24 h” value ([2]; Alamar blue) was 7.00 µM. The “LD50, YOPRO (μM) 24 h” value ([2]; YOPRO) was 3.28 µM.
